From patent US20220402874A1, “SOLID FORMS OF OMECAMTIV MECARBIL DIHYDROCHLORIDE AND PROCESSES THEREOF” (DR. REDDY'S LABORATORIES LIMITED, priority 2019, published 2022)
Structures can show the parent of a compound that is named as a salt. Each block holds one compound with its values, some of them ahead of it.

Legend:
[1] = storage stability of the solid form in a closed container (PXRD); type: physicochemical
Protocol: Further, the premix of amorphous solid dispersion with Soluplus is also unstable as depicted in FIG. 8.
In another aspect, the present application provides a crystalline Form OMT-D of Omecamtiv mecarbil dihydrochloride, characterized by a PXRD pattern comprising the peaks at about 12.98, 15.79, 18.55 and 25.63°±0.2° 2θ. In embodiments, the crystalline Form OMT-D of Omecamtiv mecarbil dihydrochloride is characterized by an additional peak at about 20.41°±0.2° 2θ. In embodiments, the application provides crystalline Form OMT-D of Omecamtiv mecarbil dihydrochloride, characterized by a PXRD pattern of FIG. 14. In embodiments, crystalline Form OMT-D of Omecamtiv mecarbil dihydrochloride is a solvate with dimethyl sulfoxide. In embodiments, crystalline Form OMT-D is monosolvate with dimethyl sulfoxide. In embodiments, crystalline Form OMT-D is stable for atleast 45 days stored in a closed container. In embodiments, the crystalline Form OMT-D is characterized by a thermogram of FIG. 16.

[2] = described in the '270 application; cited from earlier work

stable for at least (time stored) ([1]; stored in a closed container): ≥ 45 days
SMILES: COC(=O)N1CCN(Cc2cccc(NC(=O)Nc3ccc(C)nc3)c2F)CC1 [Form OMT-D, Omecamtiv mecarbil dihydrochloride]

stability of amorphous state (result in words) ([1]; as depicted by PXRD in FIG. 5 / FIG. 8): unstable
SMILES: COC(=O)N1CCN(Cc2cccc(NC(=O)Nc3ccc(C)nc3)c2F)CC1 [Omecamtiv mecarbil dihydrochloride]

SMILES: COC(=O)N1CCN(Cc2cccc(NC(=O)Nc3ccc(C)nc3)c2F)CC1 [anhydrous form B, Omecamtiv mecarbil dihydrochloride]
stability of crystalline form (result in words) [2]: metastable
